In patent US9908877B2, “Imidazo[1,5-a]pyridinium ion fluorophores, and methods of making and using the same” (Indiana University Research and Technology Corporation, priority 2013, dated 2018):
Where “and” joins values, the source holds several entries; their conditions need not be identical. Equal values may be shown once.

Experiments:
Assay type in all cases: physicochemical
[1] = Fluorescence response to trifluoroacetic acid / DBU in acetonitrile
Method: A 30 μM solution of Compound 6 in acetonitrile was prepared by adding 99 μL of a stock solution of 3.04 mM Compound 6 in methanol to 10 mL of acetonitrile. An initial fluorescence emission spectrum of the solution was obtained and is illustrated by curve (i) in FIG. 1A.
A series of approximately 13.8 μL aliquots of trifluoroacetic acid (TFA) were then added to the 30 μM solution of Compound 6 until a total concentration of 60.0 mM of TFA was present in the solution. (The total amount of TFA present in the solution corresponded to 2000 equivalents of acid per equivalent of Compound 6.) The fluorescence emission spectrum of the resulting solution was obtained and is illustrated by curve (ii) in FIG. 1A.
A base, i.e., 1,8-diazabicyclo[5.4.0]undec-7-ene (DBU), was then added to the solution to neutralize the acid until a concentration of 90 mM DBU was obtained. The fluorescence emission spectrum of the resulting solution was obtained and is illustrated by curve (iii) in FIG. 1A. The fluorescence emission intensity at λem,max=565 nm increased as the amount of base present in the system increased and the fluorescence emission intensity at λem,max=405 nm decreased as the amount of base present in the system increased, which reflected Compound 6's ratiometric response to the changing base concentration in acetonitrile.
A 30 μM solution of Compound 7 in acetonitrile was prepared by adding 84 μL of a stock solution of 3.58 mM Compound 7 in methanol to 10 mL of acetonitrile. The emission spectrum of the solution was then obtained and is illustrated by curve (i) in FIG. 1B.
A series of approximately 13.8 μL aliquots of TFA were then added to the 30 μM solution of Compound 7 until a total concentration of 60.0 mM TFA was present in the solution (which corresponded to 2000 equivalents of acid per equivalent of Compound 7). The fluorescence emission spectrum of the solution was obtained and is illustrated by curve (ii) in FIG. 1B.
After the 60 mM TFA concentration was achieved, DBU was gradually added to the solution until a total concentration of 90 mM DBU was present in the solution. The fluorescence spectrum of the solution was obtained and is illustrated by curve (iii) in FIG. 1B.
An aliquot of 50 μL of trifluoroacetic acid was then added to the system, and the fluorescence emission spectrum was obtained and is illustrated by the curved line with a peak at 360 nm in FIG. 6A.
Compound 10 was placed in neat acetonitrile and its emission spectrum was monitored as trifluoroacetic acid was added to the acetonitrile in incremental amounts to achieve a solution that included an acid concentration ranging from 0 to 0.2 M. After each acid addition the sample was excited with radiation of a wavelength 340 nm, and its fluorescence emission spectrum was monitored. The results are illustrated in FIG. 7A.
The solution of Compound 10 in acetonitrile was titrated with trifluoroacetic acid (TFA). […] The first stage, which occurred with the addition of the initial aliquots of TFA, was a slight increase intensity at 580 nm, as illustrated in FIG. 7A. As more TFA was added to the system, a second transition occurred in which the emission at 580 nm began to decrease and as the emission at 400 nm began to increase, as illustrated in FIG. 7B. A plot of the emission intensity at 580 nm versus pH and at 400 nm versus pH is illustrated in FIG. 7C.
Compounds 10, 11, and 12 were then each individually added, at a concentration of 30 μM, to acetonitrile and the emission spectrum of each was monitored. The compounds emitted at 600 nm with an intensity of about 7.57×10^5 arbitrary units (a.u.) in neat acetonitrile. […] FIG. 8B illustrates the emission properties of Compound 12.

[2] = Fluorescence quantum yield, integrating sphere
[3] = Ultraviolet-visible light spectrum (maximum absorbance wavelength)
[4] = Fluorescence emission spectrum (maximum emission wavelength)
[5] = Fluorescence emission in a series of organic solvents; conditions: 30 μM, excited at 360 nm
Method: Compound 6 was placed in the series of organic solvents at a concentration of 30 μM, excited with radiation at 360 nm, and monitored for fluorescence emission. The organic solvent, intensity of fluorescence emission (ET), and maximum emission wavelength in nm and cm^−1, are set forth below in Table 2.

[6] = Dimethylsulfoxide (ET(30) 45.1)

## CCN(CC)c1ccc(-c2c3cccc[n+]3cn2-c2ccc(OC)cc2)cc1.[Cl-] [Compound 6, 1-(4-(diethylamino)phenyl)-2-(4-methoxyphenyl)-2H-imidazo[1,5-a]pyridin-4-ium chloride]
[1]; 30 μM in acetonitrile in the absence of trifluoroacetic acid
  λem,max (fluorescence emission): 565 nm
[1]; 30 μM in acetonitrile in the presence of trifluoroacetic acid (60.0 mM TFA)
  λem,max (fluorescence emission): 400 nm and 405 nm
[2]; H2O (pH not given), 30 μM
  […]F (quantum yield): 16%
[2]; H2O pH = 2.5, 30 μM
  […]F (quantum yield): 31%
[2]; MeCN + 13.8 uL TFA, 30 μM
  […]F (quantum yield): 49%
[2]; MeCN, 30 μM
  […]F (quantum yield): 59%
[3]; H2O (pH not given), 30 μM
  λabs, max Abs: 350 nm
[3]; H2O pH = 2.5, 30 μM
  λabs, max Abs: 350 nm
[3]; MeCN + 13.8 uL TFA, 30 μM
  λabs, max Abs: 350 nm
[3]; MeCN, 30 μM
  λabs, max Abs: 350 nm
[4]; H2O (pH not given), 30 μM
  λem, max Em: 580 nm
[4]; H2O pH = 2.5, 30 μM
  λem, max Em: 400 nm
[4]; MeCN + 13.8 uL TFA, 30 μM
  λem, max Em: 405 nm
[4]; MeCN, 30 μM
  λem, max Em: 565 nm
[5]; Acetonitrile (ET(30) 45.6)
  maximum emission Wavelength: 559 nm
  maximum emission wavenumber: 17889.09 cm⁻¹
[5]; Benzene (ET(30) 34.3)
  maximum emission Wavelength: 567 nm
  maximum emission wavenumber: 17636.68 cm⁻¹
[5]; Chloroform (ET(30) 39.1)
  maximum emission Wavelength: 533 nm
  maximum emission wavenumber: 18761.73 cm⁻¹
[5]; Dichloromethane (ET(30) 40.7)
  maximum emission Wavelength: 535 nm
  maximum emission wavenumber: 18691.59 cm⁻¹
[5]; [6]
  maximum emission Wavelength: 567 nm
  maximum emission wavenumber: 17636.68 cm⁻¹
[5]; Hexane (ET(30) 31)
  maximum emission Wavelength: 561 nm
  maximum emission wavenumber: 17825.31 cm⁻¹
[5]; Tetrahydrofuran (ET(30) 37.4)
  maximum emission Wavelength: 541 nm
  maximum emission wavenumber: 18484.29 cm⁻¹
[5]; Toluene (ET(30) 33.9)
  maximum emission Wavelength: 568 nm
  maximum emission wavenumber: 17605.63 cm⁻¹
[5]; Water (ET(30) 63.1)
  maximum emission Wavelength: 576 nm
  maximum emission wavenumber: 17361.11 cm⁻¹
